Laboratory results published in patent US10829506B2, “Amino- or ammonium-containing sulfonic acid, phosphonic acid and carboxylic acid derivatives and their medical use” (GRI Bio, Inc., priority 2011, dated 2020).
Several values for one entry are separate records, joined by “and”; a condition that tells them apart may be missing. Equal entries are not always repeated.

Assays:
RBL-2H3 cells = assay: Inhibition of mast cell degranulation (β-hexosaminidase release); assay type: cell-based, rat; conditions: Rattus norvegicus, RBL-2H3 cells sensitized with anti-DNP IgE, triggered with DNP-HSA, 1 h preincubation
Description: Mast cells are key effector cells involved in allergic and inflammatory diseases, and the Rat Basophilic Leukemia clone 2H3 (RBL-2H3) cell line is a commonly used model of allergen dependent immune modulator release (degranulation) in mast cells. On their surface, they express the high affinity receptor for IgE (FcεRI). Upon binding of antigen-specific IgE to the receptor, cells become sensitized to the IgE specific antigen (allergen). When IgE-sensitized cells then encounter multivalent antigen, the antigen clusters IgE-FcεRI complexes and initiates a signal transduction cascade that leads to degranulation, that is, the release of inflammatory mediators, such as cytokines, eicosanoids, histamine and enzymes. The assay can be used as a screening method to identify immune-modulating compounds, in particular compounds useful in the medical management of allergic and inflammatory diseases and asthma, β-hexosaminidase was previously shown to be released with the same kinetics as histamine (Schwartz et al., J Immunology; 123:1445-1450 (1979)), thus offering a simple means to monitor degranulation. The RBL-2H3 cell line has been successfully used to identify compounds with anti-allergic activity (Choo et al. Planta Med., 69:518-522 (2003)).
Cell Culture: RBL-2H3 cells obtained from the German Collection of Microorganisms and Cell Cultures (ACC312) (Braunschweig, Germany) were maintained in 70% Minimum Essential Medium with Earle's Salts, 20% RPMI 1640 Medium, 10% FBS and 2 mM l-glutamine in 95% air/5% CO2 at 37° C. and routinely checked for mycoplasma contamination. Cells were passaged every 3-4 days; after washing cells once with 35 ml PBS cells were incubated 8 min with 5 ml 0.05% Trypsin-EDTA solution at 37° C. Cells were removed from the incubator, 15 ml culture medium was added and cells were resuspended by repeated pipetting.
Cell seeding: cells were harvested with Trypsin-EDTA as described and 50-100 μl cell suspension seeded Into Costar CellBind 24 well cluster plates (no. 3337). Plates were kept for 30 min at RT under the sterile hood before being transferred to the incubator. Cells were used within one or two days after seeding.
For sensitization, cells for immediate use were sensitized 6-12 h after plating; cells to be used the following day were sensitized 26-38 h after plating. Culture plates were removed from the incubator and checked for cell growth and contamination. The medium was discarded and cells were sensitized with anti-DNP IgE (0.4 μg/ml) in 0.4 ml culture medium overnight. Following overnight sensitization, cells were washed with 0.8 ml pre-warmed TyB and 0.38 ml test compound or vehicle control (supplemented or not with 1% FBS) were added to duplicate wells. Samples were adjusted to contain 1% vehicle for test compounds dissolved in organic solvents. Cells were incubated for 1 h at 37° C. At the end of the incubation period, cells were routinely stimulated with 20 μl DNP-HSA (2 μg/ml; final concentration 0.1 μg/ml) diluted in TyB and cells were incubated for 15 min at 37° C. Alternatively, cells were stimulated with 20 μl […] (final concentration 0.25 μM) or 20 nM […] (final concentration 0.25 μM), both in the absence or presence of 20 nM PMA (final concentration).
Plates were removed from the incubator and immediately centrifuged at 4° C. for 5 min at 250×g and transferred to an ice bath. Aliquots of supernatants, 25 μl, were transferred to 96-well plates. Remaining supernatant was aspirated from control wells and cells were lysed in […] lysis buffer for 5 min at RT on an orbital shaker at 450 rpm under non-sterile conditions. After lysis, 25 μl aliquots of lysates were transferred to 96-well plates.
MUG substrate solution, 100 μl, were added to supernatant and lysate samples and plates were incubated 30 min at 37° C. The reaction was terminated by addition of 150 μl stop solution. Fluorescence was measured at 365 nm excitation and 440 nm emission wavelengths. […]

BALB/c-mice = assay: Allergic contact dermatitis model (TDI), mouse ear swelling test; assay type: in vivo
Method: The anti-inflammatory and anti-allergic effects of compound 1a were assessed in a mouse model of allergic contact dermatitis, a response driven primarily by T helper type 2 (Th2) cells. […] In this model, an allergic dermatitis response is obtained by sensitizing mice to TDI and subsequently challenging them with antigen by topical administration onto the ears. A quantitative assessment of anti-inflammatory and anti-allergic effects of topically or orally administered test compounds is possible by measuring the resulting ear swelling.
Female BALB/c-mice were obtained from Charles River (Sulzfeld, Germany) at age 8 weeks. All animals were housed in groups of eight per cage at 22° C. with a 12 h light/dark-cycle. Water and a standard diet (Aitromin, Lage/Lippe, Germany) were available ad libitum. All animals were acclimatized for one week before experimental procedures were commenced.
Experimental procedures for BALB/c mice housing, TDI sensitization and challenge, and measurement of ear thickness were performed as previously described (Baurner et al., J Pharm Pharmacol. 55:1107-1114 (2003)) with the following modifications. For active sensitization, 100 μL of 5% (w/v) TDI was administered to the shaved and stripped abdominal epidermis on day one, and for the next three consecutive days, 50 μL of 5% (w/v) TDI was applied. The allergic reaction was boosted 21 days later by application of 50 μL of 0.5% (w/v) TDI. For the examination of test compound effects, the left ears were used for the TDI challenge (20 μL of 0.5% in acetone) and ear thickness measured 3 h before and 24 h after challenge.
Group size was n=7 mice unless otherwise stated. Test compounds were freshly prepared before administration.
Administration time: to determine optimal time for administration treatment groups were treated orally by gavage with 100 mg/kg of compound 1a (suspended in phosphate-buffered saline (PBS), 10 mL/kg) 4 or 16 h before topical TDI challenge. Vehicle treated mice received PBS (10 mL/kg) orally, 4 h before challenge.
Dose-response: two groups of mice were treated orally with compound 1a at 20 mg/kg or 100 mg/kg suspended in PBS, 4 h before topical TDI challenge. Vehicle treated mice received PBS orally 4 h before challenge.
Compound 1a was administered to two groups of mice topically in 20 μl of a 2% or 6% solution in acetone/water (1:1). The solution was applied, 2 h before topical TDI challenge by administration of 10 μl onto each of the inner and outer surfaces of the left ears. A vehicle group (n=7) was treated with acetone/water (1:1).
Mean and standard error of the mean (SEM) were calculated from individual ear edema values. […]

Structure (SMILES): CCCCCCCCCCCCCC[N+](C)(C)CCCS(=O)(=O)[O-] [Compound 1a, 3-(N,N-Dimethylmyristylammonio)-Propanesulfonate]
- IC50 (RBL-2H3 cells): 3.2 µM
- Inhibition of mouse ear swelling (allergic contact dermatitis) (BALB/c-mice; oral 100 mg/kg, 4 h before TDI challenge): 52% and 51.7* %
- Inhibition of mouse ear swelling (allergic contact dermatitis) (BALB/c-mice; oral 100 mg/kg, 16 h before TDI challenge): 32.2
- Inhibition of mouse ear swelling (allergic contact dermatitis) (BALB/c-mice; topical 2% solution, 2 h before TDI challenge): 72%
- Inhibition of mouse ear swelling (allergic contact dermatitis) (BALB/c-mice; topical 6% solution, 2 h before TDI challenge): 86%
